Entries after “also recorded” stand apart in the source; their conditions may differ. Where two headings read alike, the source gives them in different places.
Legend:
Dengue NGC virus [1] = assay: Dengue NGC live virus infection in K562 cells, FACS (anti-E/anti-NS1 double positive cells); type: cell-based; settings: for EC50: read-out: EC50 (effective concentration of 50% inhibition of virus growth); for inhibition of viral growth / effect on infection: K562 infection assay; for percent Dengue positive cells (E and NS1 double positive): K562, Dengue NGC, 48 hours, 4.8% positive without treatment
Description: (§1) For compound testing, K562 infection system was used. […] The cell viability is measured by Celltiter Glo.
(§2) To determine the EC50 (effective concentration of 50% inhibition of virus growth) and the cytotoxity CC50 (concentration of 50% cell death), a dose response curve covering at least four different concentrations was done in K562 infection. The decrease of the percentage of the dengue positive cells was then plotted against the concentrations of inhibitors, using a nonlinear regression analysis to obtain the EC50. CC50 was calculated using the same method using the cell viability over the same range of inhibitor concentrations.

K562 cells = assay: Cell viability of infected K562 cells by Celltiter Glo; type: cell-based, human; settings: for CC50: K562 infection, same range of inhibitor concentrations, read-out: CC50 (concentration of 50% cell death)
Description: as §1, §2

[2] = as above; type: cell-based, human; settings: human, K562 cells infected with dengue NGC virus, K562 infection, same range of inhibitor concentrations, read-out: CC50 (concentration of 50% cell death)
Description: as §1, §2

dengue strain MY10340 [3] = assay: Dengue infection of human PBMCs, FACS; type: cell-based, Dengue virus; settings: human PBMC, two days, enhancing antibodies, increasing concentration
Description: as §1
Statins are a safe and widely used drug for the treatment of hypercholesterolemia (12). The toxicity observed in K562 cells could be due to the specific effect of Statins in a cancer cell line (1,22). For avoiding the toxicity in cancer or transformed cell lines, health donors' PBMC were collected, and tested the effect of statin in PBMC infection was tested. PBMCs were infected with a clinically isolated dengue strain MY10340 for two days in the presence of enhancing antibodies from dengue positive plasma. The infection was assessed by FACS and plaque assay as for K562 infection.

dengue strain MY10340 [4] = assay: Live virus titer in PBMC infection by plaque assay; type: cell-based, Dengue virus; settings: human PBMC, two days, increasing concentration
Description: PBMC (Peripheral Blood Mononuclear Cell) were prepared from buffy coat from healthy donors using ficoll gradient. […] For virus titer analysis, the level of live virus was determined by plaque assay in BHK-21 cells (ATCC) in triplicate.
For compound testing, K562 infection system was used. 50,000 K562 cells were plated in 96 well in 100 ul and infected the second day with 1 m.o.i of NGC virus for two days. Compounds were added together with the virus and the viral growth was measured by FACS with two antibodies, the anti-Dengue Envelope protein antibody (ATCC) (26) conjugated to Alexa 680 (Invitrogen) and the anti NS1 antibody (ATCC) conjugated to Alexa 488. The cell viability is measured by Celltiter Glo. The supernatant after infection were collected for plaque assay for live virus titer. For PBMC infection, conditions were the same as for K562 infection except 500,000 total cells were plated and an 1:10,000 diluted dengue IgG positive serum was added to the infection.

Dengue NGC virus [5] = assay: Plaque assay of supernatant after K562 infection; type: cell-based; settings: infected K562 cells, 48 hours, 0.1 μM and 10 μM
Description: The human lung-epithelial carcinoma A549 cell-line and hematopoetic cell line K562 are from ATCC and cultured according to instruction. PBMC (Peripheral Blood Mononuclear Cell) were prepared from buffy coat from healthy donors using ficoll gradient. The A549 dengue NGC replicon cells used for the work contains non-infectious, self replicating Dengue virus with a Renilla luciferase reporter under puromycin selection (24). Cells were cultured in F12 (Hams) medium (Invitrogen, Carlsbad, Calif.) supplemented with 10% fetal bovine serum (FBS) and puromycin (10-50 μg/ml). Cells were assayed in F12 medium supplement with 2% FBS without puromycin. Dengue NGC virus (GenBank number M29095) and the Malaysian clinical isolates MY10340 (from Shamala Devi, University of Malaya, Malaysia) were propagated in insect cells C6/36 (ATCC). For virus titer analysis, the level of live virus was determined by plaque assay in BHK-21 cells (ATCC) in triplicate.
as §1

[6] = K562 cells, 1 m.o.i NGC virus, two days, decrease of percentage of dengue positive cells by FACS

| Molecule | EC50 (Dengue NGC virus [1]; [6]) [µM] | inhibition of viral growth / effect on infection (Dengue NGC virus [1]) | CC50 (K562 cells) [µM] | CC50 at 2 days [2] [µM] | other results |
| --- | --- | --- | --- | --- | --- |
| Hymeglusin | 4.5 | significantly inhibited | ~50 | – | – |
| CC(C)C[C@H](NC(=O)c1ccc(NCc2cnc[nH]2)cc1-c1cccc2ccccc12)C(=O)O [GGTI 2133] | > 50 | – | > 50 | – | – |
| CC(C)n1c(/C=C/C(O)CC(O)CC(=O)O)c(-c2ccc(F)cc2)c2ccccc21 (stereo not drawn) [Fluvastatin] | – | – | – | 48.8 | EC50 (Dengue NGC virus [1]; Dengue virus, K562, 48 h): > 50 µM |
| CC[C@H](C)C(=O)O[C@H]1C[C@@H](C)C=C2C=C[C@H](C)[C@H](CC[C@@H]3C[C@@H](O)CC(=O)O3)[C@H]21 [Lovastatin] | – | – | – | 46.8 | EC50 (Dengue NGC virus [1]; 48 h, K562 cells, 1 m.o.i NGC virus, two days, decrease of percentage of dengue positive cells by FACS): > 50 µM; percentage of infected cells (dengue strain MY10340 [3]): decreased; virus titer (dengue strain MY10340 [4]): decreased |
| C=C(CC[C@]12O[C@H](C(=O)O)[C@@](O)(C(=O)O)[C@](C(=O)O)(O1)[C@H](OC(=O)/C=C/[C@@H](C)C[C@@H](C)CC)[C@H]2O)[C@@H](OC(C)=O)[C@H](C)Cc1ccccc1 [Zaragozic Acid, Zaragozic acid A] | 8.3 | significantly inhibited | > 50 | – | percent Dengue positive cells (E and NS1 double positive) (Dengue NGC virus [1]; 0.1 μM ZGA): 2.8%; percent Dengue positive cells (E and NS1 double positive) (Dengue NGC virus [1]; 10 μM ZGA): 0.6%; effect on cell viability / cytotoxicity (K562 cells; K562 cells, dose range, 48 hours, listed as ZGA): no significant cytotoxicity; also recorded: no effect; fold less plaque than cells treated with DMSO alone (Dengue NGC virus [5]): 2-6 fold |
